Like-named read-outs stand apart in the source and are kept apart here.

Experiment [1] concerns SV40-immortalized human corneal epithelial cells (HCE-T). Kind of experiment: Enhancing effect of PPARγ agonist on barrier function (membrane electrical resistance of corneal epithelial cell layer). Type of experiment: cell-based. The settings on record: for Membrane electrical resistance: five days after seeding, average of four experiments, base culture 296.0. How it is done:
The PPARγ agonist was evaluated with respect to the enhancing effect on the barrier function of a corneal epithelial cell. For the corneal epithelial cell, an SV40-immortalized human corneal epithelial cell line was used, utilizing a membrane electrical resistance as an index of the barrier function. When the bather function of the corneal epithelial cell is enhanced, the membrane electrical resistance increases, while the bather function is reduced, the membrane electrical resistance decreases.
From RIKEN BioResource Center, SV40-immortalized human corneal epithelial cells (HCE-T) were obtained. […] As the culture medium, a DMEM/Ham's F12 (Nacalai Tesque, Inc.) containing 15% fetal bovine serum (ICN) and 40 μg/mL of gentamicin (Gibco) was used. […] The concentration mentioned above was attained by dissolving each sample in DMSO and diluting 1,000-fold with the culture medium. In addition, a culture medium containing DMSO alone was used as a base culture medium.
Five days after the seeding, an electrical resistance of an epithelial cell layer was measured using a membrane electrical resistance measurement system (World Precision Instruments). A well containing the base medium alone with no corneal epithelial cell seeded was measured as a blank, and the value was subtracted from the electrical resistance of the epithelial cell layer. The resultant value was multiplied by an area of the cell culture (0.33 cm^2), to thereby obtain an electrical resistance (Ω·cm^2) per unit area.

Experiment [2] shares this test system. Kind of experiment: Influence of PPARγ antagonist on barrier function enhancing effect of PPARγ agonist (membrane electrical resistance). Type of experiment: cell-based. The settings on record: for Membrane electrical resistance: five days after seeding, average of four experiments, base culture 434.1. On the procedure: An influence of the PPARγ antagonist was evaluated with respect to the barrier function enhancing effect of the PPARγ agonist, and it was examined whether or not the enhancing effect on the barrier function is based on the activity of the PPARγ agonist.
From RIKEN BioResource Center, SV40-immortalized human corneal epithelial cells (HCE-T) were obtained. On a culture insert of 24-well Transwell Clear (Corning Incorporated) were seeded 6.4×10^4 cells of HCE-T, and incubated at 37° C. in 5% CO2. As the culture medium, a DMEM/Ham's F12 (Nacalai Tesque, Inc.) containing 15% fetal bovine serum (ICN) and 40 μg/mL of gentamicin (Gibco) was used. The culture medium was removed after 9 hours, 2 days, 3 days and 4 days, and replaced with a culture medium containing the PPARγ agonist and the PPARγ antagonist to thereby obtain samples. As the PPARγ agonist, rivoglitazone [0.1 μM] was used, and as the PPARγ antagonist, 2-chloro-5-nitrobenzanilide (GW-9662) [0.03 μM, 0.1 μM] was used. The concentrations mentioned above were attained by dissolving each sample in DMSO and diluting 1,000-fold with the culture medium. In addition, a culture containing DMSO alone was used as a base culture medium.
Five days after the seeding, an electrical resistance of an epithelial cell layer was measured using a membrane electrical resistance measurement system (World Precision Instruments). A well containing the base medium alone with no corneal epithelial cell seeded was measured as a blank, and the value was subtracted from the electrical resistance of the epithelial cell layer. The resultant value was multiplied by an area of the cell culture (0.33 cm^2), to thereby obtaining an electrical resistance (Ω·cm^2) per unit area.

Take `COc1ccc(OC(=O)N(CC(=O)O)Cc2ccc(OCCc3nc(-c4ccccc4)oc3C)cc2)cc1` [BMS-298585, N-[(4-methoxyphenoxy)carbonyl]-N-[[4-[2-(5-methyl-2-phenyl-4-oxazolyl)ethoxy]phenyl]methyl]glycine]: the “barrier function enhancing effect (in words)” value in experiment [1] was “excellent barrier function enhancing effect”.

With `C/C(=C/C(=O)c1ccccc1)N[C@@H](Cc1ccc(OCCc2nc(-c3ccccc3)oc2C)cc1)C(=O)O` [GW-544, N-[1-methyl-3-oxo-3-phenyl-1(Z)-propenyl]-O-[2-(5-methyl-2-phenyloxazol-4-yl)ethyl]-L-tyrosine], the “barrier function enhancing effect (in words)” value in experiment [1] is listed as “excellent barrier function enhancing effect”.

On to `O=C(Nc1ccccc1)c1cc([N+](=O)[O-])ccc1Cl` [GW-9662, 2-chloro-5-nitrobenzanilide], for which the “antagonism of the barrier function enhanced by rivoglitazone (in words)” value was “concentration-dependently reduced” in experiment [2] (GW-9662 0.03 μM and 0.1 μM with rivoglitazone 0.1 μM); “completely antagonized” in experiment [2] (GW-9662 at 0.1 μM with rivoglitazone 0.1 μM).

As for `CCc1ccc(CCOc2ccc(CC3SC(=O)NC3=O)cc2)nc1` (centres unmarked) [Pioglitazone, 5-[[4-[2-(5-ethyl-2-pyridinyl)ethoxy]phenyl]methyl]-2,4-thiazolidinedione], the Membrane electrical resistance in experiment [1] (sample 10 μM, HCE-T) is on record as 350.3 Ω · cm^2.

For the molecule `COc1ccc2nc(COc3ccc(CC4SC(=O)NC4=O)cc3)n(C)c2c1` (centres unmarked) [Rivoglitazone, 5-[4-(6-methoxy-1-methyl-1H-benzimidazol-2-ylmethoxy)benzyl]thiazolidine-2,4-dione], in experiment [1] (sample 10 μM, HCE-T, compared with base culture medium), the “barrier function enhancing effect (in words)” value was “extremely strong barrier function enhancing effect”. The Membrane electrical resistance was 615.9 Ω · cm^2 in experiment [1] (sample 10 μM, HCE-T); 538.8 Ω · cm^2 in experiment [2] (rivoglitazone 0.1 μM alone); 473.5 Ω · cm^2 in experiment [2] (rivoglitazone 0.1 μM and GW-9662 0.03 μM); 429.3 Ω · cm^2 in experiment [2] (rivoglitazone 0.1 μM and GW-9662 0.1 μM).

On to `CN(CCOc1ccc(CC2SC(=O)NC2=O)cc1)c1ccccn1` (centres unmarked) [Rosiglitazone, 5-[p-[2-(methyl-2-pyridylamino)ethoxy]benzyl]-2,4-thiazolidinedione], for which the Membrane electrical resistance in experiment [1] (sample 10 μM, HCE-T) was 343.2 Ω · cm^2.

The values are drawn from patent US20110092524A1, “Agent for Enhancing Corneal Epithelial Barrier Function” (SANTEN PHARMACEUTICAL CO., LTD., priority 2008, published 2011).
